For one data set, the system named is condyloma acuminate. The conditions noted are these: topical application of 5% emulsion; cited from earlier work.
Another data set relates to Hela cells. Put plainly: MTT assay, growth of human cervical carcinoma cells (HELA) in vitro. Format: cell-based. Particulars: different dosages, overnight, MTT assay (FIG. 7).
Data set [1] concerns TC-1 cells. Briefly: Stability in vitro (Tests 1-3), MTT assay on TC-1 cells. Format: cell-based, mouse. The conditions noted are these: for inhibiting effect on growth of TC-1 cells at 72th hour: Test 1, 10 μg/ml, incubated 72 hours (FIG. 10A); for activity after being prepared and stored for 7 days: Test 2, stored at minus 20° C. before using, 10 μg/ml, 24 hours incubation (FIG. 10B); for activity in PBS with a pH value of 5.5: Test 3, 10 μg/ml; for activity in PBS with a pH value of 5.5 / activity in PBS heated at 100° C.: 24 hours incubation (FIG. 10C); for activity in PBS heated at 100° C.: Test 3, PBS heated 10 minutes at 100° C. before using. As for the experimental part: RPMI medium containing 10% of calf serum and 5×10^3 TC-1 cells were added into a 96-well cell culture plate; 10 μg/ml of the F1 polypeptide, the F3 polypeptide, and a mixture of F1 and F3 in a ratio of 1:1 were added respectively into the medium and incubated for 72 hours in an incubator with 5% of CO2 at 37° C., and the cell proliferations at 24th hour, 48th hour, and 72th hour were determined respectively by the MTT assay.
The steps in the Test 2 were substantially the same as those in the Test 1, except that the F1 polypeptide and the F3 polypeptide which had been prepared and stored for 0, 1, 3, 5, and 7 days at minus 20° C. respectively before using were added into the medium, and the incubation was performed for 24 hours.
The steps in the Test 3 were substantially the same as those in the Test 1, except that the pH value of the phosphate buffer saline (PBS) in the medium was changed or the PBS is heated for 10 minutes at 100° C. before using, and the incubation was performed for 24 hours. Referring to FIG. 10C, it can be seen that the F1 polypeptide and the F3 polypeptide were still active even in the PBS with a pH value of 5.5 or heated at 100° C.

Another data set relates to IL-6. Briefly: IL-6 level in TC-1 culture solution by ELISA. In kind it is cell-based, mouse. Particulars: for change of IL-6 levels with increase of concentration: 5 μg/mL to 10 μg/mL, overnight (FIG. 12A, 12B); for IL-6 level in TC-1 culture solution: 5 μg/mL, overnight, vs untreated solution or P3 polypeptide (FIG. 12A). The protocol: FIGS. 12A and 12B are graphs illustrating IL-6 levels (detected by ELISA) in TC-1 culture solutions treated by 5 μg/mL and 10 μg/mL of the P3 polypeptide, the F1 polypeptide, the F3 polypeptide, and a mixture of F1 and F3 overnight, respectively. […] IL-6 levels were decreased with increase of concentration of the F1 polypeptide, the F3 polypeptide, or the mixture of F1 and F3, which may be resulted from apoptosis of TC-1 cells induced by high concentration of the F1 polypeptide, the F3 polypeptide, or the mixture of F1 and F3.

A further data set has as its system NP69 cells. Put plainly: MTT assay, immortalized normal cells NP69. Format: cell-based. The conditions noted are these: different concentrations, incubated overnight, MTT assay (FIG. 1D). The protocol: Immortalized normal cells NP69 were used in another experiment. More specifically, 100 μL of 5×10^3 NP69 cells cultured in a RPMI medium containing 10% of calf serum were added into a 96-well cell culture plate, the F1 polypeptide, the F3 polypeptide, and control polypeptide P3 (FIG. 1D) with different concentrations were added respectively and incubated overnight in an incubator with 5% of CO2 at 37° C., and the cell proliferation was determined by a MTT assay.

For data set [2], the system named is TC-1 cells. Format: cell-based. Particulars: different concentrations, incubated overnight, MTT assay (FIG. 1A-1C). The protocol: More specifically, in the method, 100 μL of 5×10^3 TC-1 cells cultured in a RPMI medium containing 10% of calf serum were added into a 96-well cell culture plate, the F1 polypeptide (FIG. 1A), the F3 polypeptide (FIG. 1B), and control polypeptide P3 (FIG. 1C) with different concentrations were added respectively and incubated overnight in an incubator with 5% of CO2 at 37° C., and the cell proliferation was determined by a MTT assay.
100 μL of 5×10^3 TC-1 cells cultured in a RPMI medium containing 10% of calf serum were added into a 96-well cell culture plate, 5 μg/mL of F1 and/or F3 and control polypeptides P3 and F4 were added respectively and incubated overnight in an incubator with 5% of CO2 at 37° C., and the cell proliferation was determined by a MTT assay.
100 μL of 5×10^3 TC-1 cells cultured in a RPMI medium containing 10% of calf serum were added into a 96-well cell culture plate, 5 μg/mL of F1 and/or F3 and/or Imiquimod were added respectively and incubated overnight in an incubator with 5% of CO2 at 37° C., and the cell proliferation was determined by a MTT assay.

The subject of a further data set is tumor. Particulars: M. A. Apponyi, et al., Peptides, 2004, 25, 1035; cited from earlier work.
Data set [3] relates to TC-1 cells. Put plainly: Interaction of FITC-labeled polypeptide with TC-1 cell (flow cytometry, confocal microscopy). In kind it is cell-based, mouse. The conditions noted are these: 2 μg/mL FITC-labeled polypeptide, flow cytometry (FIG. 5A). As for the experimental part:
The separated protein was digested by trypsin, polypeptides produced from the digestion was labeled by iTRAQ 4-plex reagents, and the labeled polypeptides were quantitatively analyzed by using a system combining a nano high performance liquid chromatography and a triple time of flight mass spectrometer. […] Besides, the F3 polypeptide and a control polypeptide P3 were labeled by fluorescent dye fluorescein isothiocyanate (FITC), incubated together with TC-1 cells for different periods, and repeatedly washed, thereafter a fluorescence intensity of FITC in the TC-1 cell was detected by a flow cytometry (FIG. 5A).
1000 μL of 5×10^5 TC-1 cells cultured in a RPMI medium containing 10% of calf serum were added into a 24-well cell culture plate, 2 μg/mL of the F3 polypeptide labeled by FITC was added into the cells being incubated, cells at different time points of the incubation were collected and washed with PBS buffer solution, and then the relationship between the F3 polypeptide and TC-1 cell was observed by a flow cytometer (FIG. 5A) or a confocal microscopy (FIG. 5B).

Turning to `CC(C)Cn1cnc2c(N)nc3ccccc3c21` [Imiquimod], the recurrence rate result with condyloma acuminate was “about 10%”. Moreover, the “inhibiting effect on growth of Hela cells in vitro” value in the data set on Hela cells is recorded as “inhibiting effect”.

As for “F1 polypeptide: polypeptide of SEQ ID NO: 1, sequence found in tree frog secretion, made by solid phase peptide synthesis; Caerin polypeptide (GLLSVLGSVAKHVLPHVVPVIAEHL; the sequence is synthesized)”, in the data set with TC-1 cells [1], the “inhibiting effect on growth of TC-1 cells at 72th hour” value is “significant inhibiting effects”; the “activity after being prepared and stored for 7 days” value is “not reduced”; the “activity in PBS with a pH value of 5.5” value was “still active”; the “activity in PBS heated at 100° C.” value is “still active”. Also, in the data set with IL-6, the “change of IL-6 levels with increase of concentration” value is recorded as “decreased” and the “IL-6 level in TC-1 culture solution” value is reported as “significantly higher”. The “inhibiting effect on NP69 cells” value in the data set on NP69 cells is “no inhibiting effect”. In addition, in the data set with TC-1 cells [2], the “inhibiting effect on growth of TC-1 cells” value is given as “obvious inhibiting effects”. The effect on tumor result with tumor was “inhibiting effect on tumor”.

For “F3 polypeptide: polypeptide of SEQ ID NO: 2, sequence found in tree frog secretion, made by solid phase peptide synthesis; Caerin polypeptide (GLFGVLGSIAKHLLPHVVPVIAEKL; the sequence is synthesized)”, in the data set with TC-1 cells [1], the “inhibiting effect on growth of TC-1 cells at 72th hour” value is on record as “significant inhibiting effects”; the “activity after being prepared and stored for 7 days” value is “not reduced”; the “activity in PBS with a pH value of 5.5” value is given as “still active”; the “activity in PBS heated at 100° C.” value is on record as “still active”. Further, in the data set with IL-6, the “change of IL-6 levels with increase of concentration” value is given as “decreased” and the “IL-6 level in TC-1 culture solution” value is “significantly higher”. Also, the “inhibiting effect on NP69 cells” value in the data set on NP69 cells is “no inhibiting effect”. Further, the “inhibiting effect on growth of TC-1 cells” value in the data set on TC-1 cells [2] is “obvious inhibiting effects”. Moreover, in the data set with TC-1 cells [3], the “time at which FITC was found in TC-1 cell” value was determined as 15 min and the “time of peak fluorescence intensity of FITC in TC-1 cell” value turned out to be 2 h.

These data come from patent publication US11040085B2, “Pharmaceutical composition containing F1 polypeptide and/or F3 polypeptide and use thereof” (priority 2016, dated 2021).
